Tests used:
[1] = Human liver microsome clearance / stability; type: in vitro ADME; settings: for HLM clearance, in words: as compared to compounds 1 and 2; for HLM (human liver microsome stability): human liver microsomes, Table 5
Description: Human liver microsome clearance (mL/min/kg) may be measured according to the method described by Ackley et al, “Metabolic Stability Assessed by Liver Microsomes and Hepatocytes”, in “Optimization in Drug Discovery” in the “Methods in Pharmacology and Toxicology” series (ISSN 1557-2153), pp. 151-162 (Yan, Ed., Print ISBN 978-1-58829-332-9, Springer (2004), as well as by using commercially available assay kits by Cerep, Cyprotex, Bd Bioscience and others.
Human liver microsome HLM stability may be measured as using the procedure of Ackley et al. as described above.

human TRPA1 [2] = molecular target: T1, human TRPA1 (Homo sapiens, UniProt O75762); experiment: Human Ca2+ MAX IC50 calcium assay; type: cell-based; settings: for IC50: Table 5, read-out: H Ca2+ MAX (human CA2+ MAX IC50); for affinity on human TRPA1, in words: as compared to compounds 1 and 2
T1 construct: expressed in transfected cells; host or cells: CHO cells
Description: Human Ca2+ MAX IC50 may be measured using one of the commercially available calcium assay kits provided by Molecular Devices, Abcam, Bio-Rad, Biovision, Enzo Lifesciences, Abnova, Sigma-Aldrich, or others.

human TRPA1 [3] = molecular target: T1, human TRPA1; experiment: FLIPR Tetra calcium influx assay, CHO cells expressing TRPA1, cinnamaldehyde agonist (hTRPA1 CHO Ca2+ AUC EVO); type: cell-based; settings: CHO cells expressing human TRPA1; 75 uM cinnamaldehyde; Hill coefficient fixed to 1.5; read-out: hTRPA1 IC50 (hTRPA1 CHO Ca2+ AUC EVO (IC50))
Protocol: The IC50 ([…]) of compounds on the human and rat TRPA1 channels were determined using a FLIPR Tetra instrument. CHO cells expressing TRPA1 were plated into 384-well plates, incubated overnight at 37° C., and loaded with BD calcium indicator dye for 1 hr at 37° C. followed by 15 minutes at room temperature. The assay buffer was Hank's Balanced Salt Solution (HBSS) containing 20 mM HEPES (pH readjusted to 7.4) along with 0.02% BSA.
Following dye load and plate cool down, compounds were added to the cells using FLIPR Tetra. Plates were then incubated with compounds for 20 minutes at room temperature prior to adding agonist. Following this incubation, about an EC80 concentration of cinnamaldehyde (75 uM for human TRPA1 and 45 uM for rat TRPA1) was added to active the channels and block of cinnamaldehyde induced calcium influx was measured.
The IC50 results were fit with a standard Hill function, keeping the Hill coefficient (n) fixed to 1.5. Fixing the Hill coefficient will generally reduce variability of the IC50 determination. The IC50 results were individually examined to make sure the MIN and MAX points were set correctly prior to validation of the results.

T1 sequence (O75762 whole entry): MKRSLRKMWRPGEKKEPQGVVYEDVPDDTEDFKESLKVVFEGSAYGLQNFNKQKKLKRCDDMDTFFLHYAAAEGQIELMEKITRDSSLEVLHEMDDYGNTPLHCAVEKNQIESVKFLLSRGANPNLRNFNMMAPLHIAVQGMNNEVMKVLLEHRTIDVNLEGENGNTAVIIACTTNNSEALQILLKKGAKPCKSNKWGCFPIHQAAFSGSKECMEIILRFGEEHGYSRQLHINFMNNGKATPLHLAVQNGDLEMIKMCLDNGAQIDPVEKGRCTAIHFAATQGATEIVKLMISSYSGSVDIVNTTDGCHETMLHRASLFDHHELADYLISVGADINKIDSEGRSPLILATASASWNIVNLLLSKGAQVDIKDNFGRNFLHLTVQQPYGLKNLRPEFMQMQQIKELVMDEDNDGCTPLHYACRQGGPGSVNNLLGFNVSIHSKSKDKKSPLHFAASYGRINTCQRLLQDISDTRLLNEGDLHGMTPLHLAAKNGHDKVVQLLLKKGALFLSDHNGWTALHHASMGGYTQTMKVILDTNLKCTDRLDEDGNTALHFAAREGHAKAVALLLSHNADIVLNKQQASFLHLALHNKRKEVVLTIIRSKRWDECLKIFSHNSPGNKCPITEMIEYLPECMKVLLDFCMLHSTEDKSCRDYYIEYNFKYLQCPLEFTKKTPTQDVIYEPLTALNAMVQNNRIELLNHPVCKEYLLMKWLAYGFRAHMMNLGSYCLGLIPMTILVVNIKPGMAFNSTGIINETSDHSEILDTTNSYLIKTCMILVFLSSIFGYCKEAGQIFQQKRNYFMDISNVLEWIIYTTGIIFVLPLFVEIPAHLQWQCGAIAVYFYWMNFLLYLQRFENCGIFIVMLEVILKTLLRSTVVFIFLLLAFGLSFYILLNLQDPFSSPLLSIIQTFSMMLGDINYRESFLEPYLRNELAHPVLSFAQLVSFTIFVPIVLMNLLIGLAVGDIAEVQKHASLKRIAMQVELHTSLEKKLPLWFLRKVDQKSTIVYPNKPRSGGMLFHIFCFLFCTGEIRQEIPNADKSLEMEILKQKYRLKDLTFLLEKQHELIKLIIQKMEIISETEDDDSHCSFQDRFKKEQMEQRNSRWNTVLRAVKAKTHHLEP

Compound | IC50 (human TRPA1 [3]) [nM] | further results
C[C@H]1[C@H](F)C[C@@H](C(=O)NCc2cc(-c3cnc(C(F)(F)F)nc3)ncc2C(F)(F)F)N1S(=O)(=O)c1cncc(F)c1 [Compound 3] | – | HLM clearance, in words [1]: relatively high HLM clearance; HLM (human liver microsome stability) [1]: 19 mL/min/kg; IC50 (human TRPA1 [2]): 21 nM
C[C@H]1[C@H](F)C[C@@H](C(=O)NCc2cc(-c3cnc(C(F)(F)F)nc3)ccc2C#N)N1S(=O)(=O)c1ccc(F)cn1 [[10], (2S,4R,5S)—N-(2-cyano-5-(2-(trifluoromethyl)pyrimidin-5-yl)benzyl)-4-fluoro-1-(5-fluoropyridin-2-ylsulfonyl)-5-methylpyrrolidine-2-carboxamide] | 66.9 | –
C[C@H]1[C@H](F)C[C@@H](C(=O)NCc2cc(-c3cnc(C(F)(F)F)nc3)ncc2C#N)N1S(=O)(=O)c1ccc(F)cn1 [[13], (2S,4R,5S)—N-((5-cyano-2-(2-(trifluoromethyl)pyrimidin-5-yl)pyridin-4-yl)methyl)-4-fluoro-1-(5-fluoropyridin-2-ylsulfonyl)-5-methylpyrrolidine-2-carboxamide] | 89.8 | –
C[C@H]1[C@H](F)C[C@@H](C(=O)NCc2cc(-c3cnc(C(F)(F)F)nc3)ncc2C(F)(F)F)N1S(=O)(=O)c1cc2c(Cl)nccc2o1 [[4], (2S,4R,5S)-1-(4-chlorofuro[3,2-c]pyridin-2-yl)sulfonyl-4-fluoro-5-methyl-N-[[5-(trifluoromethyl)-2-[2-(trifluoromethyl)pyrimidin-5-yl]-4-pyridyl]methyl]pyrrolidine-2-carboxamide] | 0.634 | –
C[C@H]1[C@H](F)C[C@@H](C(=O)NCc2cc(-c3cnc(C(F)(F)F)nc3)ncc2C(F)(F)F)N1S(=O)(=O)c1cccnc1 [[2], (2S,4R,5S)-4-fluoro-5-methyl-1-(3-pyridylsulfonyl)-N-[[5-(trifluoromethyl)-2-[2-(trifluoromethyl)pyrimidin-5-yl]-4-pyridyl]methyl]pyrrolidine-2-carboxamide] | 32 | –
C[C@H]1[C@H](F)C[C@@H](C(=O)NCc2cc(-c3cnc(C(F)(F)F)nc3)ncc2C(F)(F)F)N1S(=O)(=O)c1cc2cnccc2o1 [[5], (2S,4R,5S)-4-fluoro-1-furo[3,2-c]pyridin-2-ylsulfonyl-5-methyl-N-[[5-(trifluoromethyl)-2-[2-(trifluoromethyl)pyrimidin-5-yl]-4-pyridyl]methyl]pyrrolidine-2-carboxamide] | 1.91 | –
C[C@H]1[C@H](F)C[C@@H](C(=O)NCc2cc(-c3cnc(C(F)(F)F)nc3)ncc2Cl)N1S(=O)(=O)c1ccc(F)cn1 [[9], (2S,4R,5S)—N-((5-chloro-2-(2-(trifluoromethyl)pyrimidin-5-yl)pyridin-4-yl)methyl)-4-fluoro-1-(5-fluoropyridin-2-ylsulfonyl)-5-methylpyrrolidine-2-carboxamide] | 16.7 | –
C[C@H]1[C@H](F)C[C@@H](C(=O)NCc2cc(-c3cnc(C(F)(F)F)nc3)cnc2C(F)(F)F)N1S(=O)(=O)c1ccc(F)cn1 [[15], (2S,4R,5S)-4-fluoro-1-(5-fluoropyridin-2-ylsulfonyl)-5-methyl-N-((2-(trifluoromethyl)-5-(2-(trifluoromethyl)pyrimidin-5-yl)pyridin-3-yl)methyl)pyrrolidine-2-carboxamide] | 47.7 | –
C[C@H]1[C@H](F)C[C@@H](C(=O)NCc2cc(-c3cnc(C(F)(F)F)nc3)ncc2OC(F)(F)F)N1S(=O)(=O)c1ccc(F)cn1 [[11], (2S,4R,5S)-4-fluoro-1-(5-fluoropyridin-2-ylsulfonyl)-5-methyl-N-((5-(trifluoromethoxy)-2-(2-(trifluoromethyl)pyrimidin-5-yl)pyridin-4-yl)methyl)pyrrolidine-2-carboxamide] | 6.73 | –
C[C@H]1[C@H](F)C[C@@H](C(=O)NCc2cc(-c3cnc(C(F)(F)F)nc3)ncc2C(F)(F)F)N1S(=O)(=O)c1ccncc1 [Compound 6] | – | HLM clearance, in words [1]: relatively high HLM clearance; HLM (human liver microsome stability) [1]: 19 mL/min/kg; IC50 (human TRPA1 [2]): 638 nM; affinity on human TRPA1, in words (human TRPA1 [2]): low affinity
C[C@H]1[C@H](F)C[C@@H](C(=O)NCc2cc(-c3cnc(C(F)(F)F)nc3)ncc2C(F)(F)F)N1S(=O)(=O)c1ccc(Cl)cn1 [Compound 2] | – | HLM (human liver microsome stability) [1]: 6.1 mL/min/kg; IC50 (human TRPA1 [2]): 6 nM
C[C@H]1[C@H](F)C[C@@H](C(=O)NCc2cc(-c3cnc(C(F)(F)F)nc3)ncc2F)N1S(=O)(=O)c1ccc(F)cn1 [[12], (2S,4R,5S)-4-fluoro-N-((5-fluoro-2-(2-(trifluoromethyl)pyrimidin-5-yl)pyridin-4-yl)methyl)-1-(5-fluoropyridin-2-ylsulfonyl)-5-methylpyrrolidine-2-carboxamide] | 103 | –
C[C@H]1[C@H](F)C[C@@H](C(=O)NCc2cc(-c3cnc(C(F)(F)F)nc3)cnc2C(F)F)N1S(=O)(=O)c1ccc(F)cn1 [[14], (2S,4R,5S)—N-((2-(difluoromethyl)-5-(2-(trifluoromethyl)pyrimidin-5-yl)pyridin-3-yl)methyl)-4-fluoro-1-(5-fluoropyridin-2-ylsulfonyl)-5-methylpyrrolidine-2-carboxamide] | 75.1 | –
C[C@H]1[C@H](F)C[C@@H](C(=O)NCc2cc(-c3cnc(C(F)(F)F)nc3)ncc2C(F)(F)F)N1S(=O)(=O)c1ccc(C#N)nc1 [Compound 4] | – | HLM (human liver microsome stability) [1]: 3.7 mL/min/kg; IC50 (human TRPA1 [2]): 41 nM; affinity on human TRPA1, in words (human TRPA1 [2]): low affinity

Continued, in another order:

IC50 (human TRPA1 [3]) [nM] | Compound | further results
633 | C[C@H]1[C@H](F)C[C@@H](C(=O)NCc2cc(-c3cnc(C(F)(F)F)nc3)ncc2C(F)(F)F)N1S(=O)(=O)c1ncccc1F [[7], (2S,4R,5S)-4-fluoro-1-[(3-fluoro-2-pyridyl)sulfonyl]-5-methyl-N-[[5-(trifluoromethyl)-2-[2-(trifluoromethyl)pyrimidin-5-yl]-4-pyridyl]methyl]pyrrolidine-2-carboxamide] | –
3.09 | C[C@H]1[C@H](F)C[C@@H](C(=O)NCc2cc(-c3cnc(C(F)(F)F)nc3)ncc2C(F)(F)F)N1S(=O)(=O)c1cncc(Cl)c1 [[3], (2S,4R,5S)-1-[(5-chloro-3-pyridyl)sulfonyl]-4-fluoro-5-methyl-N-[[5-(trifluoromethyl)-2-[2-(trifluoromethyl)pyrimidin-5-yl]-4-pyridyl]methyl]pyrrolidine-2-carboxamide] | –
73.5 | C[C@H]1[C@H](F)C[C@@H](C(=O)NCc2cc(-c3cnc(C(F)(F)F)nc3)ncc2C(F)(F)F)N1S(=O)(=O)c1ccc(C#N)cn1 [[8], (2S,4R,5S)-1-(5-cyanopyridin-2-ylsulfonyl)-4-fluoro-5-methyl-N-((5-(trifluoromethyl)-2-(2-(trifluoromethyl)pyrimidin-5-yl)pyridin-4-yl)methyl)pyrrolidine-2-carboxamide] | –
2.69 | C[C@H]1[C@H](F)C[C@@H](C(=O)NCc2cc(-c3cnc(C(F)(F)F)nc3)ncc2C(F)(F)F)N1S(=O)(=O)c1ccc(F)cn1 [[1], (2S,4R,5S)-4-fluoro-1-[(5-fluoro-2-pyridyl)sulfonyl]-5-methyl-N-[[5-(trifluoromethyl)-2-[2-(trifluoromethyl)pyrimidin-5-yl]-4-pyridyl]methyl]pyrrolidine-2-carboxamide] | –
2.16 | C[C@H]1[C@H](F)C[C@@H](C(=O)NCc2cc(-c3cnc(C(F)(F)F)nc3)ncc2C(F)(F)F)N1S(=O)(=O)c1ccc(Cl)cn1 [[6], (2S,4R,5S)-1-[(5-chloro-2-pyridyl)sulfonyl]-4-fluoro-5-methyl-N-[[5-(trifluoromethyl)-2-[2-(trifluoromethyl)pyrimidin-5-yl]-4-pyridyl]methyl]pyrrolidine-2-carboxamide] | –
